{
  "source": "PubChem BioAssay AID272",
  "about": "(DTP/NCI, 2004)",
  "test_system": "Lewis lung carcinoma i.m., BDF1 mice, T/C %",
  "assay": "NCI In Vivo Anticancer Drug Screen. Data for tumor model Lewis Lung Carcinoma (intramuscular) in B6D2F1 (BDF1) mice",
  "summary_of_the_method": "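Value is the ratio of a treated-group measurement (T) to the matching vehicle-control measurement (C), using either survival or tumour size in mice bearing transplanted tumours.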",
  "note": "Several values for one entry are separate records, joined by “and”; a condition that tells them apart may be missing. Equal entries are not always repeated. Results filed as inconclusive are left out.",
  "data": [
    {"molecule": "O=C1C=C(SCCO)C(=O)c2ccccc21", "values": [
      {"measurement": "T/C", "setting": "endpoint: mean tumor weight (est.), dose: 0.75 mg/kg/injection, schedule: Q01DX011 (ip), vehicle: other, higher = larger tumour", "result": "52 % of control"},
      {"measurement": "T/C", "setting": "endpoint: mean tumor weight (est.), dose: 1.5 mg/kg/injection, schedule: Q01DX011 (ip), vehicle: other, higher = larger tumour", "result": "40 % of control"},
      {"measurement": "T/C", "setting": "endpoint: mean tumor weight (est.), dose: 3.0 mg/kg/injection, schedule: Q01DX011 (ip), vehicle: other, higher = larger tumour", "result": "18 % of control"},
      {"measurement": "T/C", "setting": "endpoint: median survival time, dose: 0.75 mg/kg/injection, schedule: Q01DX011 (ip), vehicle: other, higher = longer survival", "result": "100 % of control"},
      {"measurement": "T/C", "setting": "endpoint: median survival time, dose: 1.5 mg/kg/injection, schedule: Q01DX011 (ip), vehicle: other, higher = longer survival", "result": "92 % of control"},
      {"measurement": "T/C", "setting": "endpoint: median survival time, dose: 3.0 mg/kg/injection, schedule: Q01DX011 (ip), vehicle: other, higher = longer survival", "result": "100 % of control"}
    ]},
    {"molecule": "Cc1nn(CCO)c(C)c1N=[N+]([O-])c1c(C)nn(CCO)c1C", "values": [
      {"measurement": "T/C", "setting": "endpoint: median survival time, dose: 15.0 mg/kg/injection, schedule: Q02DX011 (ip), vehicle: saline with Tween-80, higher = longer survival", "result": "105 % of control"},
      {"measurement": "T/C", "setting": "endpoint: median survival time, dose: 30.0 mg/kg/injection, schedule: Q02DX011 (ip), vehicle: saline with Tween-80, higher = longer survival", "result": "86 % of control"},
      {"measurement": "T/C", "setting": "endpoint: median survival time, dose: 60.0 mg/kg/injection, schedule: Q02DX011 (ip), vehicle: saline with Tween-80, higher = longer survival", "result": "97 % of control"}
    ]},
    {"molecule": "COc1cc([C@@H]2c3cc4c(cc3[C@H](O)[C@H]3COC(=O)[C@H]23)OCO4)cc(OC)c1OC", "values": [
      {"measurement": "T/C", "setting": "endpoint: mean tumor weight, dose: 0.25 mg/kg/injection, schedule: Q01DX011 (ip), vehicle: Klucel (hydroxypropylcellulose) (HPC), higher = larger tumour", "result": "100 % of control"},
      {"measurement": "T/C", "setting": "endpoint: mean tumor weight, dose: 0.5 mg/kg/injection, schedule: Q01DX011 (ip), vehicle: Klucel (hydroxypropylcellulose) (HPC), higher = larger tumour", "result": "77 % of control"},
      {"measurement": "T/C", "setting": "endpoint: mean tumor weight, dose: 1.0 mg/kg/injection, schedule: Q01DX011 (ip), vehicle: Klucel (hydroxypropylcellulose) (HPC), higher = larger tumour", "result": "105 % of control"},
      {"measurement": "T/C", "setting": "endpoint: median survival time, dose: 0.13 mg/kg/injection, schedule: Q01DX011 (ip), vehicle: Klucel (hydroxypropylcellulose) (HPC), higher = longer survival", "result": "87 % of control"},
      {"measurement": "T/C", "setting": "endpoint: median survival time, dose: 0.25 mg/kg/injection, schedule: Q01DX011 (ip), vehicle: Klucel (hydroxypropylcellulose) (HPC), higher = longer survival", "result": "107 % of control"},
      {"measurement": "T/C", "setting": "endpoint: median survival time, dose: 0.5 mg/kg/injection, schedule: Q01DX011 (ip), vehicle: Klucel (hydroxypropylcellulose) (HPC), higher = longer survival", "result": "114 % of control"}
    ]},
    {"molecule": "FC(F)(F)c1nc2nc(Cl)c(Cl)nc2[nH]1", "values": [
      {"measurement": "T/C", "setting": "endpoint: median survival time, dose: 8.0 mg/kg/injection, schedule: Q01DX011 (ip), vehicle: saline, higher = longer survival", "result": "107 % of control"},
      {"measurement": "T/C", "setting": "endpoint: median survival time, dose: 16.0 mg/kg/injection, schedule: Q01DX011 (ip), vehicle: saline, higher = longer survival", "result": "112 % of control"},
      {"measurement": "T/C", "setting": "endpoint: median survival time, dose: 32.0 mg/kg/injection, schedule: Q01DX011 (ip), vehicle: saline, higher = longer survival", "result": "116 % of control"}
    ]},
    {"molecule": "Nc1ncn(C2OC(CO)C(O)C2O)c(=O)n1", "note": "(stereo not drawn)", "values": [
      {"measurement": "T/C", "setting": "endpoint: mean tumor weight, dose: 0.19 mg/kg/injection, schedule: Q01DX011 (ip), vehicle: saline, higher = larger tumour", "result": "105 % of control"},
      {"measurement": "T/C", "setting": "endpoint: mean tumor weight, dose: 0.38 mg/kg/injection, schedule: Q01DX011 (ip), vehicle: saline, higher = larger tumour", "result": "82 % of control"},
      {"measurement": "T/C", "setting": "endpoint: median survival time, dose: 0.1 mg/kg/injection, schedule: Q01DX011 (ip), vehicle: saline, higher = longer survival", "result": "93 % of control"},
      {"measurement": "T/C", "setting": "endpoint: median survival time, dose: 0.19 mg/kg/injection, schedule: Q01DX011 (ip), vehicle: saline, higher = longer survival", "result": "104 % of control"},
      {"measurement": "T/C", "setting": "endpoint: median survival time, dose: 0.2 mg/kg/injection, schedule: Q01DX011 (ip), vehicle: saline, higher = longer survival", "result": "106 % of control and 109 % of control"},
      {"measurement": "T/C", "setting": "endpoint: median survival time, dose: 0.38 mg/kg/injection, schedule: Q01DX011 (ip), vehicle: saline, higher = longer survival", "result": "90 % of control and 110 % of control"},
      {"measurement": "T/C", "setting": "endpoint: median survival time, dose: 0.4 mg/kg/injection, schedule: Q01DX011 (ip), vehicle: saline, higher = longer survival", "result": "105 % of control and 124 % of control"},
      {"measurement": "T/C", "setting": "endpoint: median survival time, dose: 0.75 mg/kg/injection, schedule: Q01DX011 (ip), vehicle: saline, higher = longer survival", "result": "112 % of control"},
      {"measurement": "T/C", "setting": "endpoint: median survival time, dose: 0.8 mg/kg/injection, schedule: Q01DX011 (ip), vehicle: saline, higher = longer survival", "result": "106 % of control"},
      {"measurement": "T/C", "setting": "endpoint: median survival time, dose: 1.5 mg/kg/injection, schedule: Q01DX011 (ip), vehicle: saline, higher = longer survival", "result": "108 % of control"}
    ]}
  ]
}
